We go through eleven compounds from ChEMBL document CHEMBL1201862, “PubChem BioAssay data set” (2004).

The nature of test [1]: NIH-3T3 fibroblast cytotoxicity, dose response, cytotoxicity control, cell-based, fluorescence, Alamar Blue, secondary assay (AID 2327).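 Note: NIH-3T3 mouse fibroblasts cultured with fluconazole at 8 µg/mL.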 The test is classed as functional.
Test [2] is described as follows: fluconazole-exposed Candida albicans growth modulators – fluorescence, retest, confirmation (AID 2467). The class given is functional, cell-based.
In test [3] the target is T1, Mannose-6-phosphate isomerase (Homo sapiens, UniProt P34949).
T1 sequence (P34949 whole entry): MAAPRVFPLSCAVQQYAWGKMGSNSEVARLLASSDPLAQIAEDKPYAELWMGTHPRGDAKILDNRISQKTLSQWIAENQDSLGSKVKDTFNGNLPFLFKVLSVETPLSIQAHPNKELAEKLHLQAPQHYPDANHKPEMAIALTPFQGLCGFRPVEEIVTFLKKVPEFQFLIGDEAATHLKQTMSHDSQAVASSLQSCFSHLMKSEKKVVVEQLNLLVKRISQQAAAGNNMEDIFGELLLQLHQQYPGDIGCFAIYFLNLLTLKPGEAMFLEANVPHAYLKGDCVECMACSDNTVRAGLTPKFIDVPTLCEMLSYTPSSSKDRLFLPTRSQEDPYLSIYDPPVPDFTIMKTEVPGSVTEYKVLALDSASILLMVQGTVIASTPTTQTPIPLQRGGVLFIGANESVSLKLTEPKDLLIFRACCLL
Kind of test: MPI inhibition at elevated mannose 6-phosphate – biochemical, fluorescence intensity, high mannose 6-phosphate, primary screen (AID 1220).

For a further test, the target named is T2, CAAX prenyl protease 2 (Saccharomyces cerevisiae S288c, UniProt Q03530).
T2 sequence (Q03530 whole entry): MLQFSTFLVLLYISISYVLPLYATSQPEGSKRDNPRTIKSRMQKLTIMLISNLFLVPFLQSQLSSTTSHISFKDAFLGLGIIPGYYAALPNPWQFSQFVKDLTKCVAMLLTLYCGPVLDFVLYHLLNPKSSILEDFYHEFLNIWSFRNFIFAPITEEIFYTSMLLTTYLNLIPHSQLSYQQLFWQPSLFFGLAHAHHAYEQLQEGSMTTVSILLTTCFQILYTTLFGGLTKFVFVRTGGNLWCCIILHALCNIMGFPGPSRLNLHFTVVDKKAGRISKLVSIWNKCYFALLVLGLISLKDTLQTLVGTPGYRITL
The test is classed as biochemical.

Test [4] can be described thus: toxicity toward cultured mammalian cells – cell-based, plate reader, cherry-pick samples, cytotoxicity control, dose response (AID 504397). The test is classed as functional.
The target of test [5] is T3, Runt-related transcription factor 1/Core-binding factor subunit beta (Homo sapiens, UniProt Q01196+Q13951). Put plainly: disruptors of Runt domain/CBFb-SMMHC interaction – biochemical, FRET, Cerulean-Runt, Venus-CBFb-SMMHC, uHTS, […] (AID 1434). The test is classed as protein assay.
Test [6] deals with T3, Runt-related transcription factor 1/Core-binding factor subunit beta. Kind of test: Runt domain/CBFb-SMMHC interaction disruptors – biochemical, TR-FRET (AID 1438). The test is classed as protein assay.
In the next test the target is T4, Coagulation factor XII (Homo sapiens, UniProt P00748).
T4 sequence (P00748 whole entry): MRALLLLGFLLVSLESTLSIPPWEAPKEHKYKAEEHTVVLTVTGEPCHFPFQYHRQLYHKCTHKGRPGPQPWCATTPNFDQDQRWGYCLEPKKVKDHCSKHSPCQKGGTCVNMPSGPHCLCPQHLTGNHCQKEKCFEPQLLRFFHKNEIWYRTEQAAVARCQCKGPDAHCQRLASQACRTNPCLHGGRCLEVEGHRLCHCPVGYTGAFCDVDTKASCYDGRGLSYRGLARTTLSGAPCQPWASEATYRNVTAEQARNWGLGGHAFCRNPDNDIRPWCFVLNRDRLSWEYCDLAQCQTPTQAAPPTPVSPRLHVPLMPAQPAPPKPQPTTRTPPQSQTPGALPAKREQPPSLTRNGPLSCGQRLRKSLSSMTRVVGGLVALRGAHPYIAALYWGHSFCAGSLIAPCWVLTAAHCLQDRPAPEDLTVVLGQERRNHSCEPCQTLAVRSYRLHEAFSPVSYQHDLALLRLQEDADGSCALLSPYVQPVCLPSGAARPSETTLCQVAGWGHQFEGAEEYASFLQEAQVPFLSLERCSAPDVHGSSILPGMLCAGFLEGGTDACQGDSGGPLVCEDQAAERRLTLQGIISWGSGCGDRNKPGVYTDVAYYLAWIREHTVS
Put plainly: activated coagulation factor XII inhibitor potency, concentration-effect curve, cell-free (AID 716). The class given is functional.

Test [7] can be described thus: Trypanosoma cruzi growth suppression in host cells – NIH3T3 host cells, beta-gal luminescence, confirmation (AID 2044).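 Note: intracellular parasites grown in NIH/3T3 mouse fibroblasts as host cells; luminescent beta-galactosidase reporter signal from transgenic T. cruzi replicating inside host cells; inhibitors lower the luminescence signal.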 The class given is functional, cell-based.
A short description of test [8]: NIH3T3 cell viability loss – ATP luminescence, mouse fibroblasts, counter-screen, dose response (AID 2010).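 Note: cells exposed to compound for about 90 hours before reading.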 The test is classed as functional, cell-based. For orientation: A counterscreen serves to expose hits that act by an unwanted route or on another target.
In another test the test system is HEK293. Kind of test: EBV LMP1 TES2 canonical NF-kB signalling blockers – cell-based, HEK293, luciferase, cherry-pick, dose response (AID 588343). The class given is functional. As to conditions: Homo sapiens.
Another test has as its target SUMO-activating enzyme (Homo sapiens, UniProt Q9UBT2). Kind of test: blockers of UBC9-mediated SUMO conjugation – biochemical, AlphaScreen, SUMOylation inhibitor project, confirmation (AID 2018). The class given is functional. In general terms: Bead proximity is the source of the signal in Alpha formats.
The target in test [9] is Induced myeloid leukemia cell differentiation protein Mcl-1 (Homo sapiens, UniProt Q07820). The class given is functional.
For test [10], the target named is T5, Heat shock factor protein 1 (Mus musculus, UniProt P38532).
T5 sequence (P38532 whole entry): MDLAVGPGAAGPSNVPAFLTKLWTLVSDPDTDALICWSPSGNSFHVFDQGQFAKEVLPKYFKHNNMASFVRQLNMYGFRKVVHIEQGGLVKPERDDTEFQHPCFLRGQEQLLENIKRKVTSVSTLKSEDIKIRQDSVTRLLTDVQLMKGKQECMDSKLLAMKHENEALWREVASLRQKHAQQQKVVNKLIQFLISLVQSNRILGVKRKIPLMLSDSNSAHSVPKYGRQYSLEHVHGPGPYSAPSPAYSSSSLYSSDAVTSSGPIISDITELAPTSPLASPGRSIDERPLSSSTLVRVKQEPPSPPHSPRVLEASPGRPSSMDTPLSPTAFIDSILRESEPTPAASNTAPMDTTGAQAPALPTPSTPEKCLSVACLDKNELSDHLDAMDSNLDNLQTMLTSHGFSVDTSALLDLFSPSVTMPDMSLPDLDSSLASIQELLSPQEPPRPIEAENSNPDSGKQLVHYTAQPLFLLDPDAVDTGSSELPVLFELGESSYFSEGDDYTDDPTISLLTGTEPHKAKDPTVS
Put plainly: decrease of HSF1-responsive luciferase luminescence – cell-based, NIH3T3, dose retest, confirmation (AID 2382).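 Note: NIH3T3 fibroblasts with HSF1-driven luciferase reporter stressed by proteasome inhibitor MG132; luminescence from HSF1-driven luciferase expression after 8 hours of MG132 stress.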 The test is classed as functional.

Test [11] has as its target T6, Aryl hydrocarbon receptor (Homo sapiens, UniProt P35869).
T6 sequence (P35869 whole entry): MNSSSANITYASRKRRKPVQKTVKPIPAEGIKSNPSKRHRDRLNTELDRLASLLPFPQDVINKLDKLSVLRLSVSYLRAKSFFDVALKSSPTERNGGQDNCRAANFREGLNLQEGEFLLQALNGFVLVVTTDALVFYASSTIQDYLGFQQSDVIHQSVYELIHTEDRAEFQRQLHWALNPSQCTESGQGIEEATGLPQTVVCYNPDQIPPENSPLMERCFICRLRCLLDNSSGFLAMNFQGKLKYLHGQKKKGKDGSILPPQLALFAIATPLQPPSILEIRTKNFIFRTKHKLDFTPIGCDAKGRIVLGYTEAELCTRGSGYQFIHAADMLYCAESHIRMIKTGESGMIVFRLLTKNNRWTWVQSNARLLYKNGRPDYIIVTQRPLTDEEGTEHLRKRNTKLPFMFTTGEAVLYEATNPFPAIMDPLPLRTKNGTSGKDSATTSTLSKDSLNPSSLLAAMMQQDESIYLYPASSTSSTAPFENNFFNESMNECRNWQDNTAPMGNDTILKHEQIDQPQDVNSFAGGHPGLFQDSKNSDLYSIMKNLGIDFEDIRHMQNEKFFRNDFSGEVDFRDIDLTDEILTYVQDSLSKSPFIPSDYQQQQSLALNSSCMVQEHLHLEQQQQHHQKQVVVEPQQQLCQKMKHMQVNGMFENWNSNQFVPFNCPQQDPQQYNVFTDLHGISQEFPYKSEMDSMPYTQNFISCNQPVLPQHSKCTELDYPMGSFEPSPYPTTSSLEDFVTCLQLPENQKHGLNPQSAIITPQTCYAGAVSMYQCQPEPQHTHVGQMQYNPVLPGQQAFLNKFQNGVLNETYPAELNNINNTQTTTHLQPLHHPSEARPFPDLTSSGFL
Put plainly: Luminescence-based cell-based high throughput dose response assay for activators of the Aryl Hydrocarbon Receptor (AHR). [Related pubchem assays: 2796 (Primary screen (AHR activators in singlicate)), 2845 (Confirmation screen (AHR activators in triplicate)), 434939 (Counterscreen (PXR activators in triplicate)), 2804 (Summary (AHR activators))]. The test is classed as ADME.

Test [12] deals with T7, Type-1 angiotensin II receptor (Homo sapiens, UniProt P30556).
T7 sequence (P30556 whole entry): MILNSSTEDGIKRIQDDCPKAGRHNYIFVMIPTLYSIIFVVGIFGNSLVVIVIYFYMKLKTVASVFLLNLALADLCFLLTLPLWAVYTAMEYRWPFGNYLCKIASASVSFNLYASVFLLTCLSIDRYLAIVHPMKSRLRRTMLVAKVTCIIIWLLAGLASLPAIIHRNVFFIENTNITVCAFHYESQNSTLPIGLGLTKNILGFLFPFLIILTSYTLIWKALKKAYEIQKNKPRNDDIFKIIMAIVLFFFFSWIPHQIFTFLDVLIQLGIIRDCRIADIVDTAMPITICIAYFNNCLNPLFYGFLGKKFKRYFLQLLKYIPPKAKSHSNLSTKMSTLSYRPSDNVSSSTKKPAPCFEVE
Put plainly: agonist activity at AGTR1 – cell-based, uHTS hits, selectivity assay for APJ receptor agonist project, dose response (AID 488865).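 Note: beta-arrestin recruitment to AT1 measured by enzyme fragment complementation luminescence.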 The test is classed as functional.

Test [13] deals with 26S proteasome non-ATPase regulatory subunit 14 (Homo sapiens, UniProt O00487). Kind of test: inhibition of proteasome subunit RPN11 – biochemical, fluorescence polarization, uHTS hits, confirmation (AID 602368). The class given is functional. (Polarisation of emitted light reports the rotation of a fluorescent probe.)
The target in test [14] is 72 kDa type IV collagenase (Homo sapiens, UniProt P08253). Kind of test: Dose Response validation of uHTS RPN11 inhibitor hits using a MMP-2 Fluorescence assay. The test is classed as functional.
Another test deals with Prothrombin (Bos taurus, UniProt P00735). Kind of test: thrombin protease inhibitors – biochemical, fluorescence polarization, uHTS hits, dose response (AID 602369). The test is classed as functional.

Calls of active or inactive are those of the source. A value given as a limit tells only on which side of the number the result lay.

T3 sequence (Q01196 whole entry, the tested form may be a part): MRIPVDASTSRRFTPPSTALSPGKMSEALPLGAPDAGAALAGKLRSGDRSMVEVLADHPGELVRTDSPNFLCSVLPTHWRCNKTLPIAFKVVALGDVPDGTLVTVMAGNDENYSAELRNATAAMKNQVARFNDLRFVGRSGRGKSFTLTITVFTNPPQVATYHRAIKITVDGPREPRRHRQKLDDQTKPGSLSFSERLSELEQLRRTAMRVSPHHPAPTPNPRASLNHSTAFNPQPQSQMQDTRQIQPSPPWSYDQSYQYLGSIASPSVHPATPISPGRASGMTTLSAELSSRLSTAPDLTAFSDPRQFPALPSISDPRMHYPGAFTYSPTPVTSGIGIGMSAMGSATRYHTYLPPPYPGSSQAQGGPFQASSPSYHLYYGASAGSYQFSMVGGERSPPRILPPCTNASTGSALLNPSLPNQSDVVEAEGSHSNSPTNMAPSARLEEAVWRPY
T3 sequence (Q13951 whole entry, the tested form may be a part): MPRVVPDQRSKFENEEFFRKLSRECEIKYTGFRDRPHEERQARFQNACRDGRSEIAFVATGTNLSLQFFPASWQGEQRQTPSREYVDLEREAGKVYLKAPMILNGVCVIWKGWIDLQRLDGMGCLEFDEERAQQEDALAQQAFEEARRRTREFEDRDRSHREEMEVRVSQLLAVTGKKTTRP
Sequence of Induced myeloid leukemia cell differentiation protein Mcl-1 (Q07820 whole entry): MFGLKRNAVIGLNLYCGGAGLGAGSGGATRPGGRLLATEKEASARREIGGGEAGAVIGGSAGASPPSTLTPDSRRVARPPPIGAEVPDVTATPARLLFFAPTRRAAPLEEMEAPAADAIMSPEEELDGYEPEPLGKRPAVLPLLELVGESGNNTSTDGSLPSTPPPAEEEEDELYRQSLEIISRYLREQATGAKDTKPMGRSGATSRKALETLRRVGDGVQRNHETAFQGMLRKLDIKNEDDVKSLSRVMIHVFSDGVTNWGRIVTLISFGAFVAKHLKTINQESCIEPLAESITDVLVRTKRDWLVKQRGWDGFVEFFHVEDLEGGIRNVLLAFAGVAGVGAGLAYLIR
Sequence of SUMO-activating enzyme (Q9UBE0 whole entry): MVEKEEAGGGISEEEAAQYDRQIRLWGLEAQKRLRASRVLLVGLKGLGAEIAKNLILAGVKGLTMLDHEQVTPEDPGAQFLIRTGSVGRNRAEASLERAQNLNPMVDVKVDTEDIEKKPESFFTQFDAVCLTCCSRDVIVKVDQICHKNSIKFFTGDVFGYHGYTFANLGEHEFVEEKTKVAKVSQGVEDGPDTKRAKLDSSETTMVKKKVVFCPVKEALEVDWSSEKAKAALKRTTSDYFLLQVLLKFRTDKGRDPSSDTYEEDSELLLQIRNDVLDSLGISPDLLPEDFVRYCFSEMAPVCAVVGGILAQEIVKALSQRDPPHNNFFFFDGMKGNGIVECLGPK
Sequence of SUMO-activating enzyme (Q9UBT2 whole entry): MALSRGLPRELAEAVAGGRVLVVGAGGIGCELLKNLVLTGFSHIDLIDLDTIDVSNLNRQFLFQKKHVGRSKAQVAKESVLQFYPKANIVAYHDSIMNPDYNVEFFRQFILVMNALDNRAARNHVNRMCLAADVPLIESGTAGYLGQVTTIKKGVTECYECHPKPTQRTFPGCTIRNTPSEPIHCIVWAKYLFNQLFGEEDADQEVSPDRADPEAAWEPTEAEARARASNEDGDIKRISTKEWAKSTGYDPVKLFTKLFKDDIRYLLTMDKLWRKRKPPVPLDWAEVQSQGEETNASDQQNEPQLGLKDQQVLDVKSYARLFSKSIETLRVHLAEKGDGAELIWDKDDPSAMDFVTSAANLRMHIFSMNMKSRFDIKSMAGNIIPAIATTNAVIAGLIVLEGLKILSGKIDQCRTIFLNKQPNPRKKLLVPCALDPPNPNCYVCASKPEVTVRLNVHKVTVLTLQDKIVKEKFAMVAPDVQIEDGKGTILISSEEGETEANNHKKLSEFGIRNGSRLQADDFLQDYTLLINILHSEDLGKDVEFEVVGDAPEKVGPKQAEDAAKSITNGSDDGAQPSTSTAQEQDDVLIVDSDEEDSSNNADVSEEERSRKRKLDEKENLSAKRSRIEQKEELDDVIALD
Sequence of 72 kDa type IV collagenase (P08253 whole entry): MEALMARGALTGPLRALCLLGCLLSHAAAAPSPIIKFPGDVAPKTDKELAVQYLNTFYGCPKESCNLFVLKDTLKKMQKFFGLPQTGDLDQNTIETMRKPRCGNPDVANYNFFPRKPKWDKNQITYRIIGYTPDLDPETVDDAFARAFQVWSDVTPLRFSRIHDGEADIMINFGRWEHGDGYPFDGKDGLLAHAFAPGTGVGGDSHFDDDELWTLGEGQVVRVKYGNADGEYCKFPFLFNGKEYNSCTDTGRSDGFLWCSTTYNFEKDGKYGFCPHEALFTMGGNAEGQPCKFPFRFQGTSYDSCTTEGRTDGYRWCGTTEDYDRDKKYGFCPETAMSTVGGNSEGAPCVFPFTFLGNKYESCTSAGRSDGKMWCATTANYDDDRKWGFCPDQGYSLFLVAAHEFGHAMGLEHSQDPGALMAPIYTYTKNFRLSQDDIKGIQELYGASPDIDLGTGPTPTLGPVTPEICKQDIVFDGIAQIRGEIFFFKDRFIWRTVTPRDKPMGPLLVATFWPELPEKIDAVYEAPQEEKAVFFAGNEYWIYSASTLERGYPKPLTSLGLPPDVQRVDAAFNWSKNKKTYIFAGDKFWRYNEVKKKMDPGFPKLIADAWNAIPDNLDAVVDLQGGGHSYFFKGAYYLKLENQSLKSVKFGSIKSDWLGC
Sequence of 26S proteasome non-ATPase regulatory subunit 14 (O00487 whole entry): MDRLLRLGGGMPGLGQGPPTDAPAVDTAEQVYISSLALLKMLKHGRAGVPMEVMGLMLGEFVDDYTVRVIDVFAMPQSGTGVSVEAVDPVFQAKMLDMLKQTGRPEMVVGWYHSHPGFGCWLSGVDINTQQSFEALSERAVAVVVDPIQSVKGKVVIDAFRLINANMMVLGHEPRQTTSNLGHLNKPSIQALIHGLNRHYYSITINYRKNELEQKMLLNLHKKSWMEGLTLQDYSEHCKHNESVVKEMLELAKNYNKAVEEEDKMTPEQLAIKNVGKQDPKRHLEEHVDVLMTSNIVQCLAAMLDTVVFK

With `Cc1cccc(N2CCc3c2nc2ccc(Br)cc2c3N)c1`, the results for the 50% effective concentration (EC50) in [1] and in test [2] were 21.4 µM (inconclusive) and 1.67 µM (active), respectively. In addition, the IC50 in test [3] is > 50 µM (not active). The AC50 on CAAX prenyl protease 2 is 8.82 µM (active); in test [4], 94.9 µM (active).
For `O=C(CC1Sc2ccccc2NC1=O)OCc1cc(=O)oc2cc(O)ccc12` (centres undefined), the half-maximal inhibitory concentration (IC50) in [5] was 2.71 µM (active); in [6], 19.6 µM (active).
Take `CCc1cc2cc(C(=O)Nc3ccccc3F)sc2s1`: on Coagulation factor XII, the IC50 is > 50 µM (inactive).
With `Oc1c(N=NC(S)=Nc2ccccc2F)c2ccccc2n1Cc1ccccc1Cl`, the half-maximal effective concentration (EC50) in test [7] was 1.28 µM (active); in [8], 17.5 µM (active). In addition, the concentration at half-maximal activity (AC50) in test [4] was 210 µM (active); with HEK293, 18.7 µM (active).
`Cc1ccc(O)c(NC(=O)c2cc3nc4c(c(C(F)(F)F)n3n2)CCc2ccccc2-4)c1`: the IC50 on SUMO-activating enzyme is 63.7 µM (active).
As to `CC(C)CNC(=O)c1c(N)n(Cc2ccco2)c2nc3ccccc3nc12`, the IC50 in [5] was 1.86 µM (active); in [6], 11.7 µM (active); in test [9], 4.4 µM (not active).
Turning to `CN(C(=O)c1ccc2c(c1)SC1=NS(=O)(=O)CCN12)C(c1ccccc1)c1ccccc1`, in test [10], the EC50 is > 195 µM (not active). Further, the half-maximal activity concentration (AC50) is 2.1 µM (active) at CAAX prenyl protease 2 and 138 µM (active) in test [4].
As to `COc1cccc2c(=O)c3cccc(N)c3[nH]c12`, the IC50 in test [5] is > 100 µM (inactive); in [6], > 100 µM (inactive); in [9] it was 6.38 µM (not active). Besides, the concentration for a half-maximal effect (EC50) in test [11] is > 91.8 µM (not active).
As for `O=C(Nc1nccs1)c1cccc(S(=O)(=O)N2CCCCC2)c1`, the IC50 at Coagulation factor XII is > 50 µM (inactive).
For `CCCCC1=CC2=CC(=O)C(C)(OC(=O)C3CCCC3)C(=O)C2=CO1` (centres undefined), in test [12], the EC50 was > 100 µM (inactive). Besides, the IC50 was 7.64 µM (active) in [13], > 100 µM (inactive) in test [14] and 7.84 µM (active) on Prothrombin.
On to `Cc1ccc(S(=O)(=O)Nc2nc(-c3ccccc3)cs2)cc1`, for which the EC50 in test [12] was > 100 µM (inactive).

A word on the EC50: it is the concentration at which the effect is half-maximal. What is called IC50 is the concentration at which inhibition is half-maximal. In general, AC50 refers to the midpoint of the concentration-response curve, whichever way the signal moves.
